Literature values as cited in patent publication US9738710B2, “Method of treating a patient for pain by administering an anti-ion channel antibody” (UCB Biopharma SPRL, priority 2009, dated 2017).
Where two headings read alike, the source gives them in different places.

How the values were obtained:
[1] = target: T1, hNav1.5 (Homo sapiens, UniProt Q14524); conditions: read-out: FRET-based Assay hNav1.5
[2] = target: T2, hNav1.7 (Homo sapiens, UniProt Q15858); conditions: read-out: FRET-based Assay hNav1.7
[3] = target: hNav1.8 (Homo sapiens, UniProt Q9Y5Y9); conditions: read-out: FRET-based Assay hNav1.8
[4] = target: T1, hNav1.5; conditions: read-out: Electrophysiology hNav1.5
[5] = target: T2, hNav1.7; conditions: read-out: Electrophysiology hNav1.7
[6] = neuropathic pain patients (Dworkin, 2002)

T1 sequence (Q14524 whole entry): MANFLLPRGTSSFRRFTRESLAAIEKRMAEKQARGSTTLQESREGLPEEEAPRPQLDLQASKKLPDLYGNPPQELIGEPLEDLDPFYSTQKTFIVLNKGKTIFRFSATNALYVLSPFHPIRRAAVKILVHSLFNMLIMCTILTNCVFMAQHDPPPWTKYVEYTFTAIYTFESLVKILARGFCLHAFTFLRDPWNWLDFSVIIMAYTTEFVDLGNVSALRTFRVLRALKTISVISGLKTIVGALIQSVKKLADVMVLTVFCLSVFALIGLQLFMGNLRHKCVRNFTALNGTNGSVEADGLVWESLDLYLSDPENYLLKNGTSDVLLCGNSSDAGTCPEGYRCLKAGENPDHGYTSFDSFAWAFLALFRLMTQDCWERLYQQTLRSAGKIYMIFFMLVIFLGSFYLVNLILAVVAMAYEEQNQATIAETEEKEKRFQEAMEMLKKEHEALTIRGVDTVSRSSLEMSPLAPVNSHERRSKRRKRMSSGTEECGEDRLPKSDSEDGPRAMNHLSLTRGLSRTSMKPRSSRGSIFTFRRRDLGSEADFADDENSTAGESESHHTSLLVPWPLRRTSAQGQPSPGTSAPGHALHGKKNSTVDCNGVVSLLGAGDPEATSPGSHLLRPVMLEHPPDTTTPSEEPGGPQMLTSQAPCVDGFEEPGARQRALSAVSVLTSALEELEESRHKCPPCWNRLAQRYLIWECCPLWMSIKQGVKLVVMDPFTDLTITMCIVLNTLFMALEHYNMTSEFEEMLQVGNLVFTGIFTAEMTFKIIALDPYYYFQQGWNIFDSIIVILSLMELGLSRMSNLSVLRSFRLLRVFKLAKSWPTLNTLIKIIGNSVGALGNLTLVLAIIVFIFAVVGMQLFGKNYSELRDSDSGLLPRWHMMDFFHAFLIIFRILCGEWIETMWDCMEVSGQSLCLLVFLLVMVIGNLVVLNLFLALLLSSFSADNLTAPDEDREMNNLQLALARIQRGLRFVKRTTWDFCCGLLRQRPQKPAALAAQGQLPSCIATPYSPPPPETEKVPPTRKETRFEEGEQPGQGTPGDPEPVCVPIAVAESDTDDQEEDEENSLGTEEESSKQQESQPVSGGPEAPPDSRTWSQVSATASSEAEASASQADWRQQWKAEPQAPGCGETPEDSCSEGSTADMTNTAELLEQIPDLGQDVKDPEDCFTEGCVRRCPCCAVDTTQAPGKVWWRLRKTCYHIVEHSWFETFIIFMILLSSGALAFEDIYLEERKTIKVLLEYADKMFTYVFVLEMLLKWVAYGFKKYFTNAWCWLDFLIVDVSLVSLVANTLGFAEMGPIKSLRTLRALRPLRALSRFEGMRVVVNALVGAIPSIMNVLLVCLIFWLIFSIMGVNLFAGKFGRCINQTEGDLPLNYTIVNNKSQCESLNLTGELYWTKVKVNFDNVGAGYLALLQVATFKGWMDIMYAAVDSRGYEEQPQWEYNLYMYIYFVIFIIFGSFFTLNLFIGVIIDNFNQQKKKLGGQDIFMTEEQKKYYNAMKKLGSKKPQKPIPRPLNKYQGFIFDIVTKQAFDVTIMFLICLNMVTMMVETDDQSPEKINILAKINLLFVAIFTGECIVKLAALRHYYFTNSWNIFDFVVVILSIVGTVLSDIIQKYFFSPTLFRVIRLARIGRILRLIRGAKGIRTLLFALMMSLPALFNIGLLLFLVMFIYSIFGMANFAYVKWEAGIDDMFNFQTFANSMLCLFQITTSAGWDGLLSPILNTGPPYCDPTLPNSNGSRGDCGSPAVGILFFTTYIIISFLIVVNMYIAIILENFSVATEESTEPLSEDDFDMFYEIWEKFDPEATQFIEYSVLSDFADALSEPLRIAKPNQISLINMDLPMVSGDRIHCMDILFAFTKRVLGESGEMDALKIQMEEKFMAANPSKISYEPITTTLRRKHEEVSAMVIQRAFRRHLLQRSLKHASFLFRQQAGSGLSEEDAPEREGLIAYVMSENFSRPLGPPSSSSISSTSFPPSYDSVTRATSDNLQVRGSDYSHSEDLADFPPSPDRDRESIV
T2 sequence (Q15858 whole entry): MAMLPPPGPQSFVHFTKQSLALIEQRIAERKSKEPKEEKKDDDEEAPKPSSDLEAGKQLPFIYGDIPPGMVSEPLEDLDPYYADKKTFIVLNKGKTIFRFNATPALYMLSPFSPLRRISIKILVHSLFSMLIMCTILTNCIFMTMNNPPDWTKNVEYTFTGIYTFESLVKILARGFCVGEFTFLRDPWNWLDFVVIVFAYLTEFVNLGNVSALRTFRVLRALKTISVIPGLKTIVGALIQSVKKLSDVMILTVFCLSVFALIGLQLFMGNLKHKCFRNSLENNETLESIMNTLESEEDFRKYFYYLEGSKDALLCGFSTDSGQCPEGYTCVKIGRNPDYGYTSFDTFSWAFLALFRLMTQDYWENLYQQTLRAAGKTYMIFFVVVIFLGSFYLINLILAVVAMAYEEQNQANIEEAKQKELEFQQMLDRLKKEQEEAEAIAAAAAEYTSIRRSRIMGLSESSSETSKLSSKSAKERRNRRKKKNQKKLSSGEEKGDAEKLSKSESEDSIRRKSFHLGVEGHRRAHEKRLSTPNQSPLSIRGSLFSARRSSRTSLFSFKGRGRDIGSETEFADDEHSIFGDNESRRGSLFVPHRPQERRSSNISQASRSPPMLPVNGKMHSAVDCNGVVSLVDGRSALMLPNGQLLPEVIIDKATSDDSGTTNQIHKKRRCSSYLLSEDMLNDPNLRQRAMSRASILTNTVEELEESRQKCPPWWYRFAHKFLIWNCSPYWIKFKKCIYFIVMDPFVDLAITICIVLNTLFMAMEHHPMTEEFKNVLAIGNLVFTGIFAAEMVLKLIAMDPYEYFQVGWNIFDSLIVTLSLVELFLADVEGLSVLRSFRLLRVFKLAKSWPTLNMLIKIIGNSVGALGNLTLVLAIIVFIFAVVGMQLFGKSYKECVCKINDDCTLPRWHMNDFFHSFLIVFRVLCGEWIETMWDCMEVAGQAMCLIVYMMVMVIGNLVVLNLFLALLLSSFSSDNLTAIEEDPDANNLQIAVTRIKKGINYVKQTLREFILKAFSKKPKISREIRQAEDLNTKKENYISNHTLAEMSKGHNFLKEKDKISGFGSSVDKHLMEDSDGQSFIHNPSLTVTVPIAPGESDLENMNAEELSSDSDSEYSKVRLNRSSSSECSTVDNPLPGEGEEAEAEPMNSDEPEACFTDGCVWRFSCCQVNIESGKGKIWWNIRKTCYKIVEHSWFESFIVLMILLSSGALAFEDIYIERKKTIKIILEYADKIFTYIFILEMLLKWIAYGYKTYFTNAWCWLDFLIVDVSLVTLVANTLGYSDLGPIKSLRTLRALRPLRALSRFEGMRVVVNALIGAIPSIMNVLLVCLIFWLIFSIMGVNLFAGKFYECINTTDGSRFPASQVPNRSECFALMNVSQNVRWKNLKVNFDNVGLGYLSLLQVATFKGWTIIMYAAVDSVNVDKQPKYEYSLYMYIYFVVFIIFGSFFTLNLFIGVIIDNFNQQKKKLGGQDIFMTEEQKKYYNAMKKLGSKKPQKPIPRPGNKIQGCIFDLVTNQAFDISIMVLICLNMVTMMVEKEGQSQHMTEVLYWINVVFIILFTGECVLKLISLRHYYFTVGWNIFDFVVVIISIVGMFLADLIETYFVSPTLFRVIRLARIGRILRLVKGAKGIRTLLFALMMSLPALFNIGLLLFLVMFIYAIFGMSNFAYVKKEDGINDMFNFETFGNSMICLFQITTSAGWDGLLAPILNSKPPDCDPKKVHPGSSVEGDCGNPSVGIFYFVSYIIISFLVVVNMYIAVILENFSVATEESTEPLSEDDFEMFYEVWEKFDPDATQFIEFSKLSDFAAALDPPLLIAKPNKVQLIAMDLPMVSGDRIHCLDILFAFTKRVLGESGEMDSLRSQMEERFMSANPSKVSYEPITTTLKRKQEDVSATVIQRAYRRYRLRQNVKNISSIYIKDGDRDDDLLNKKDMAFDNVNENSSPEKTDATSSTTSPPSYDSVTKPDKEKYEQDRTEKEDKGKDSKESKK

In the case of `CC(C)N1C(=O)C(NC(=O)C(Cc2ccccc2F)NC(=O)c2ccc(F)cc2C(F)(F)F)CCc2cc(Cl)ccc21` [N—[(R)-1-(R)-7-chloro-1-isopropyl-2-oxo-2,3,4,5-tetrahydro-1H-benzo[b]azepine-3-ylcarbamoyl)-2-(2-fluorophenyl)-ethyl]-4-fluoro-2-trifluoromethyl-benzamide], the IC50 [1] is given as 180 nM, the IC50 [2] is given as 30 nM and the IC50 [3] is given as 300 nM. For the same molecule, the IC50 [4] was 4.3 µM and the IC50 [5] was 550 nM.

In the case of `NCC1(CC(=O)O)CCCCC1` [gabapentin], the reduction of pain [6] is given as at most 50% and the “share of patients with that pain reduction” value [6] is given as “about 40%”.
